{"source": "patent US20100016213A1", "about": "“USE OF A DITERPENOID COMPOUND FOR TREATING DIABETES” (National Taiwan University, priority 2008, published 2010)", "format_in_all_cases": "in vivo", "key": {"STZ-diabetic mice (IDDM)": {"system": "STZ-diabetic mice (IDDM)", "experiment": "Plasma insulin levels before and after treatment (Insulin ELISA), STZ-diabetic mice", "settings": "for Plasma insulin, Pre-treatment: before treatment; for Plasma insulin, post-treatment: one hour after treatment", "procedure": "(§1) Normal mice, STZ-induced diabetic mice, and diet-induced diabetic mice were administered with a vehicle control, borapetoside A (5.0 mg/kg), borapetoside C (at various doses), glibenclamide (5.0 mg/kg) or metformin (500 mg/kg) by intraperitoneal injection. These mice were examined for their blood insulin levels before and one hour after treatment, using the Insulin(Rat) ELISA kit obtained from Penisula Lab. Inc., San Carlos, Calif., USA."}, "normal mice [1]": {"system": "normal mice", "experiment": "Insulin sensitivity: plasma glucose reduction with insulin plus borapetoside C or vehicle, normal mice", "settings": "thirty minutes after insulin", "procedure": "The effect of borapetoside C on insulin sensitivity was tested following the method described in Liu, et al., Clinical and Experimental Pharmacology and Physiology 2005; 32: 649-654. Normal mice (n=6), STZ-induced diabetic mice (n=5), and DIO-induced diabetic mice (n=7) were treated with insulin at various doses (i.e., 0.1 IU/kg, 0.5 IU/kg, and 1.0 IU/kg) together with either borapetoside C (0.1 mg/kg) or a vehicle control. Their plasma glucose levels were examined before and thirty minutes after insulin administration. The activity of lowering plasma glucose levels (AL) was calculated following the formula described in Example 2 above."}, "[2]": {"system": "DIO-induced diabetic mice(NIDDM)", "experiment": "Glycogen content in skeletal muscle, DIO-induced diabetic mice", "settings": "5 mg/kg i.p., 30 minutes after injection", "procedure": "(§2) Normal, STZ-induced diabetic, and DIO-induced diabetic mice were intraeritoneally injected with borapetoside C (5 mg/kg) and Actrapid (0.5 IU/kg; a short-acting insulin provided by Novo Nordisk) or metformin (500 mg/kg). Their glycogen contents in skeletal muscle were determined 30 minutes after injections."}, "normal mice [3]": {"system": "normal mice", "experiment": "Plasma insulin levels before and after treatment (Insulin ELISA), normal mice", "settings": "for Plasma insulin, Pre-treatment: before treatment; for Plasma insulin, post-treatment: one hour after treatment", "procedure": "as §1"}, "[4]": {"system": "Diet-induced diabetic mice (NIDDM)", "experiment": "Lowering plasma glucose levels via oral administration, diet-induced diabetic mice", "settings": "oral 10.0 mg/kg, sixty minutes after treatment, mean ± SEM, six animals", "procedure": "(§3) Normal, STZ-induced diabetic mice, and diet-induced diabetic mice were administered orally with 10.0 mg/kg borapetoside C, glibenclamide or metformin as a positive control, and a vehicle control. The plasma glucose levels of the treated mice were determined before and sixty minutes after treatment and the results thus obtained were shown in Table 3 below."}, "normal mice [5]": {"system": "normal mice", "experiment": "Lowering plasma glucose levels via oral administration, normal mice", "settings": "oral 10.0 mg/kg, sixty minutes after treatment, mean ± SEM, six animals", "procedure": "as §3"}, "[6]": {"system": "DIO-induced diabetic mice", "experiment": "Intraperitoneal glucose tolerance test (IPGTT), DIO-induced diabetic mice", "settings": "diet-induced diabetic mice, borapetoside C 5.0 mg/kg", "procedure": "Normal ICR mice and DIO-induced diabetic mice, treated with borapetoside C (5.0 mg/kg), a vehicle control, or glibenclamide (positive control), were subjected to an intraperitoneal glucose tolerance test (IPGTT) as described in Lamont et al., Diabetes 2008; 57: 190-198. More specifically, glucose (2.0 mg/g body weight) was administered via IP injection to normal and DIO mice and blood samples were drawn from the treated mice before and 30, 60, 120, and 150 min after glucose administration for examination of glucose levels.\nIn diet-induced diabetic mice treated with borapetoside C, the vehicle control, and glibenclamide, the basal plasma glucose concentrations were 181.6±12.3 mg/dL, 183.1±2.9 mg/dL, and 185.3±7.7 mg/dL, respectively. Thirty minutes after intraperitoneal glucose injection, the plasma glucose concentration was elevated to 405.6±8.9 mg/dL in vehicle-treated mice, to 343.5±11.2 mg/dL in borapetoside C-treated mice, or to 339.1±15.4 mg/dL in glibenclamide-treated mice."}, "[7]": {"system": "liver phosphoenolpyruvate carboxykinase (PEPCK)", "experiment": "Liver PEPCK levels by western blot in STZ-induced mice", "settings": "borapetoside C 5.0 mg/kg, twice per day for 7 days, insulin dose not given", "procedure": "To characterize the effect of borapetoside C on liver glucose utilization, levels of liver phosphoenolpyruvate carboxykinase (PEPCK) were examined by western blot analysis in STZ-induced mice treated with borapetoside C (5.0 mg/kg, twice per day for 7 days), insulin, or a vehicle control."}, "[8]": {"system": "STZ-induced diabetic mice", "experiment": "Lowering plasma glucose level, intraperitoneal injection, STZ-induced diabetic mice (type I diabetes model)", "settings": "for Plasma Glucose Level, After: after treatment; for Plasma Glucose Level, Before: before treatment", "procedure": "Normal and streptozotocin (STZ)-induced diabetic mice were administered with borapetoside A (5.0 mg/kg), borapetoside C (5.0 mg/kg), glibenclamide (5.0 mg/kg), metformin (500.0 mg/kg), or a vehicle control via intraperitoneal injection. STZ-induced diabetic mice are a well-known mouse model of type I diabetes (insulin dependent). See, e.g., Liu I M, et al., Neuroscience Letters 2001; 307: 81-84. Glibenclamide and metformin serve as two positive controls in this study.\nThe plasma glucose levels of the treated mice were determined before and one hour after administration. The activity of lowering plasma glucose levels (AL) is calculated following the formula: […]\nBorapetoside C was administered to normal mice at 0.1, 1.0, 3.0, and 5.0 mg/kg and to STZ-diabetic mice at 0.1, 1.0, 3.0, and 5.0 mg/kg. The plasma glucose levels of the treated mice were examined before and after treatment."}, "normal mice [9]": {"system": "normal mice", "experiment": "Glycogen content in skeletal muscle, normal mice", "settings": "5 mg/kg i.p., 30 minutes after injection", "procedure": "as §2"}}, "data": [{"smiles": "COC(=O)C1=CCC[C@H]2[C@]3(C)C[C@@H](c4ccoc4)OC(=O)[C@@H]3C[C@@H](O[C@@H]3O[C@H](CO)[C@@H](O)[C@H](O)[C@H]3O)[C@@]12C", "note": "[borapetoside C]", "values": [{"measurement": "Plasma insulin, Pre-treatment", "setting": "STZ-diabetic mice (IDDM); 0.1 mg/kg i.p.", "result": "15.2 ± 0.8", "unit": "pmol/L"}, {"measurement": "Plasma insulin, post-treatment", "setting": "STZ-diabetic mice (IDDM); 0.1 mg/kg i.p.", "result": "16.3 ± 0.9", "unit": "pmol/L"}, {"measurement": "Plasma insulin, Pre-treatment", "setting": "STZ-diabetic mice (IDDM); 0.5 mg/kg i.p.", "result": "15.5 ± 0.6", "unit": "pmol/L"}, {"measurement": "Plasma insulin, post-treatment", "setting": "STZ-diabetic mice (IDDM); 0.5 mg/kg i.p.", "result": "15.9 ± 0.6", "unit": "pmol/L"}, {"measurement": "Plasma insulin, Pre-treatment", "setting": "STZ-diabetic mice (IDDM); 1.0 mg/kg i.p.", "result": "15.7 ± 0.8", "unit": "pmol/L"}, {"measurement": "Plasma insulin, post-treatment", "setting": "STZ-diabetic mice (IDDM); 1.0 mg/kg i.p.", "result": "15.9 ± 0.4", "unit": "pmol/L"}, {"measurement": "Plasma insulin, Pre-treatment", "setting": "STZ-diabetic mice (IDDM); 3.0 mg/kg i.p.", "result": "13.8 ± 1.6", "unit": "pmol/L"}, {"measurement": "Plasma insulin, post-treatment", "setting": "STZ-diabetic mice (IDDM); 3.0 mg/kg i.p.", "result": "14.8 ± 0.5", "unit": "pmol/L"}, {"measurement": "Plasma insulin, Pre-treatment", "setting": "STZ-diabetic mice (IDDM); 5.0 mg/kg i.p.", "result": "15.0 ± 0.5", "unit": "pmol/L"}, {"measurement": "Plasma insulin, post-treatment", "setting": "STZ-diabetic mice (IDDM); 5.0 mg/kg i.p.", "result": "14.4 ± 0.6", "unit": "pmol/L"}, {"measurement": "AL (%)", "setting": "normal mice [1]; Borapetoside C 0.1 mg/kg together with Insulin 0.1 IU/kg", "result": "17.2 ± 1.2", "unit": "%"}, {"measurement": "AL (%)", "setting": "normal mice [1]; Borapetoside C 0.1 mg/kg together with Insulin 0.5 IU/kg", "result": "45.7 ± 3.7", "unit": "%"}, {"measurement": "AL (%)", "setting": "normal mice [1]; Borapetoside C 0.1 mg/kg together with Insulin 1.0 IU/kg", "result": "64.7 ± 1.8", "unit": "%"}, {"measurement": "Glycogen content (μmol/g wet weight)", "setting": "[2]", "result": "23.3 ± 0.4", "unit": "μmol/g wet weight"}, {"measurement": "Plasma insulin, Pre-treatment", "setting": "normal mice [3]; 0.1 mg/kg i.p.", "result": "54.0 ± 3.4", "unit": "pmol/L"}, {"measurement": "Plasma insulin, post-treatment", "setting": "normal mice [3]; 0.1 mg/kg i.p.", "result": "71.5 ± 5.3", "unit": "pmol/L"}, {"measurement": "Plasma insulin, Pre-treatment", "setting": "normal mice [3]; 0.5 mg/kg i.p.", "result": "52.2 ± 3.0", "unit": "pmol/L"}, {"measurement": "Plasma insulin, post-treatment", "setting": "normal mice [3]; 0.5 mg/kg i.p.", "result": "65.7 ± 9.8", "unit": "pmol/L"}, {"measurement": "Plasma insulin, Pre-treatment", "setting": "normal mice [3]; 1.0 mg/kg i.p.", "result": "58.9 ± 3.5", "unit": "pmol/L"}, {"measurement": "Plasma insulin, post-treatment", "setting": "normal mice [3]; 1.0 mg/kg i.p.", "result": "65.0 ± 6.0", "unit": "pmol/L"}, {"measurement": "Plasma insulin, Pre-treatment", "setting": "normal mice [3]; 3.0 mg/kg i.p.", "result": "52.0 ± 3.7", "unit": "pmol/L"}, {"measurement": "Plasma insulin, post-treatment", "setting": "normal mice [3]; 3.0 mg/kg i.p.", "result": "142.6 ± 29.2", "unit": "pmol/L"}, {"measurement": "Plasma insulin, Pre-treatment", "setting": "normal mice [3]; 5.0 mg/kg i.p.", "result": "56.6 ± 2.3", "unit": "pmol/L"}, {"measurement": "Plasma insulin, post-treatment", "setting": "normal mice [3]; 5.0 mg/kg i.p.", "result": "139.4 ± 25.5", "unit": "pmol/L"}, {"measurement": "Activity of lowing plasma glucose levels (%)", "setting": "[4]", "result": "28.2 ± 3.1", "unit": "%"}, {"measurement": "Activity of lowing plasma glucose levels (%)", "setting": "normal mice [5]", "result": "23.1 ± 2.8", "unit": "%"}, {"measurement": "basal plasma glucose concentration (IPGTT)", "setting": "[6]; before glucose injection", "result": "181.6 ± 12.3", "unit": "mg/dL"}, {"measurement": "plasma glucose levels at 60 min, 120 min, and 150 min versus control mice (IPGTT)", "setting": "[6]; glucose 2.0 mg/g IP", "result": "significantly lower"}, {"measurement": "plasma glucose concentration thirty minutes after intraperitoneal glucose injection (IPGTT)", "setting": "[6]; glucose 2.0 mg/g body weight IP, vehicle 405.6±8.9", "result": "343.5 ± 11.2", "unit": "mg/dL"}, {"measurement": "liver PEPCK levels versus vehicle control-treated mice (western blot)", "setting": "[7]", "result": "much lower"}, {"measurement": "Plasma Glucose Level, After", "setting": "[8]; 0.1 mg/kg", "result": "529.0 ± 14.7", "unit": "mg/dL"}, {"measurement": "Plasma Glucose Level, Before", "setting": "[8]; 0.1 mg/kg", "result": "580.0 ± 7.8", "unit": "mg/dL"}, {"measurement": "Plasma Glucose Level, After", "setting": "[8]; 1.0 mg/kg", "result": "472.2 ± 13.9", "unit": "mg/dL"}, {"measurement": "Plasma Glucose Level, Before", "setting": "[8]; 1.0 mg/kg", "result": "566.6 ± 11.4", "unit": "mg/dL"}, {"measurement": "Plasma Glucose Level, After", "setting": "[8]; 3.0 mg/kg", "result": "493.8 ± 15.3", "unit": "mg/dL"}, {"measurement": "Plasma Glucose Level, Before", "setting": "[8]; 3.0 mg/kg", "result": "572.2 ± 16.2", "unit": "mg/dL"}, {"measurement": "Activities of Lowering Plasma Glucose Levels (AL)", "setting": "[8]; 5.0 mg/kg intraperitoneal injection, one hour after administration", "result": "16.5 ± 2.9", "unit": "%"}, {"measurement": "Plasma Glucose Level, After", "setting": "[8]; 5.0 mg/kg", "result": "481.1 ± 20.8", "unit": "mg/dL"}, {"measurement": "Plasma Glucose Level, Before", "setting": "[8]; 5.0 mg/kg", "result": "576.0 ± 11.1", "unit": "mg/dL"}, {"measurement": "Glycogen content (μmol/g wet weight)", "setting": "normal mice [9]", "result": "25.1 ± 1.3", "unit": "μmol/g wet weight"}]}]}
